Legend:
Assay type in all cases: functional, Homo sapiens
Conditions in all cases: Homo sapiens, read-out: Cell Viability; for viability at 10 µM: Concentration 10 uM; for viability at 1 µM: Concentration 1 uM
Colon cancer organoid [1] = assay: Targeting of F14 CAF-induced therapy resistance in O23 CRC organoid-stroma co-culture. Cell viability is reported with SN-38.
Colon cancer organoid [2] = assay: Targeting of F14 CAF-induced therapy resistance in O23 CRC organoid-stroma co-culture. Cell viability is reported without Gefitinib.
Colon cancer organoid [3] = assay: Targeting of F14 CAF-induced therapy resistance in O14 CRC organoid-stroma co-culture. Cell viability is reported with Gefitinib.
Colon cancer organoid [4] = assay: Targeting of F14 CAF-induced therapy resistance in O23 CRC organoid-stroma co-culture. Cell viability is reported with Gefitinib.
Colon cancer organoid [5] = assay: Targeting of F14 CAF-induced therapy resistance in O14 CRC organoid-stroma co-culture. Cell viability is reported without Gefitinib.

## O=C(NCC(=O)N1CCCC1)Nc1ccc2cnccc2c1
Colon cancer organoid [1]
  viability at 10 µM: 39%
Colon cancer organoid [2]
  viability at 10 µM: 179%
Colon cancer organoid [3]
  viability at 10 µM: 76.1%
Colon cancer organoid [4]
  viability at 10 µM: 68.5%
Colon cancer organoid [5]
  viability at 10 µM: 83.8%

## CCOc1ccc(S(=O)(=O)Nc2ccc(Cl)cc2C#Cc2cnc(C(=O)O)cc2OC)c2ncccc12
Colon cancer organoid [1]
  viability at 10 µM: 77.6%
Colon cancer organoid [2]
  viability at 10 µM: 95.3%
Colon cancer organoid [3]
  viability at 10 µM: 42.8%
Colon cancer organoid [4]
  viability at 10 µM: 46.2%
Colon cancer organoid [5]
  viability at 10 µM: 102%

## O=C1NC(c2ccccn2)Sc2ccccc21 (stereo not given) [BTZO-4]
Colon cancer organoid [1]
  viability at 10 µM: 100%
Colon cancer organoid [2]
  viability at 10 µM: 142%
Colon cancer organoid [3]
  viability at 10 µM: 48.9%
Colon cancer organoid [4]
  viability at 10 µM: 56.6%
Colon cancer organoid [5]
  viability at 10 µM: 112%

## O=C(NC[C@@H]1[C@H]2CN(C(=O)OCc3cc(C(F)(F)F)cc(C(F)(F)F)c3)C[C@@H]12)c1ccc2[nH]nnc2c1 [BI 2545]
Colon cancer organoid [1]
  viability at 10 µM: 105%
Colon cancer organoid [2]
  viability at 10 µM: 142%
Colon cancer organoid [3]
  viability at 10 µM: 43%
Colon cancer organoid [4]
  viability at 10 µM: 83.8%
Colon cancer organoid [5]
  viability at 10 µM: 105%

## Cc1cc2c(-c3ccco3)cnc(N[C@H]3CCN(C)C[C@@H]3C(=O)NC3CCCCC3)c2[nH]c1=O [GSK791]
Colon cancer organoid [1]
  viability at 10 µM: 81.3%
Colon cancer organoid [2]
  viability at 10 µM: 76%
Colon cancer organoid [3]
  viability at 10 µM: 26.2%
Colon cancer organoid [4]
  viability at 10 µM: 50%
Colon cancer organoid [5]
  viability at 10 µM: 111%

## Cn1cc(-c2ccc3occ(-c4ccccc4-c4ccccc4)c3n2)cn1
Colon cancer organoid [1]
  viability at 10 µM: 63.4%
Colon cancer organoid [2]
  viability at 10 µM: 153%
Colon cancer organoid [3]
  viability at 10 µM: 75.6%
Colon cancer organoid [4]
  viability at 10 µM: 89.5%
Colon cancer organoid [5]
  viability at 10 µM: 115%

## CC(C)C(=O)Nc1n[nH]c2cc(-c3cccc(NS(=O)(=O)C4CC4)c3)ccc12
Colon cancer organoid [1]
  viability at 10 µM: 62.1%
Colon cancer organoid [2]
  viability at 10 µM: 115%
Colon cancer organoid [3]
  viability at 10 µM: 57.8%
Colon cancer organoid [4]
  viability at 10 µM: 54.8%
Colon cancer organoid [5]
  viability at 10 µM: 129%

## CCCc1cc(C)[nH]c(=O)c1CNC(=O)c1cc(-c2ccc(N3CCN(C(C)C)CC3)nc2)cc2c1cnn2C(C)C
Colon cancer organoid [1]
  viability at 10 µM: 102%
Colon cancer organoid [2]
  viability at 10 µM: 152%
Colon cancer organoid [3]
  viability at 10 µM: 77.8%
Colon cancer organoid [4]
  viability at 10 µM: 68.8%
Colon cancer organoid [5]
  viability at 10 µM: 95.6%

## O=C(NCCN1CCOCC1)c1ccc2c(c1)C(=O)c1ccc(Nc3ccc(F)c(NC(=O)c4ccccc4)c3)cc1CC2 [FS-694]
Colon cancer organoid [1]
  viability at 10 µM: 54%
Colon cancer organoid [2]
  viability at 10 µM: 108%
Colon cancer organoid [3]
  viability at 10 µM: 28.9%
Colon cancer organoid [4]
  viability at 10 µM: 40%
Colon cancer organoid [5]
  viability at 10 µM: 156%

## CC(=O)N1CCC(c2ccc(C(=O)NC(=N)N)cc2C(F)(F)F)CC1 [BI 9627]
Colon cancer organoid [1]
  viability at 10 µM: 106%
Colon cancer organoid [2]
  viability at 10 µM: 109%
Colon cancer organoid [3]
  viability at 10 µM: 42.9%
Colon cancer organoid [4]
  viability at 10 µM: 53.2%
Colon cancer organoid [5]
  viability at 10 µM: 102%

## CN(C)CC#Cc1ccc(OCCCc2sc(N3CCc4cccc(C(=O)Nc5nc6ccccc6s5)c4C3)nc2C(=O)O)c(F)c1 [A-1155463]
Colon cancer organoid [1]
  viability at 10 µM: 0.449%
Colon cancer organoid [2]
  viability at 10 µM: 5.72%
Colon cancer organoid [3]
  viability at 10 µM: 21.1%
Colon cancer organoid [4]
  viability at 10 µM: 2.66%
Colon cancer organoid [5]
  viability at 10 µM: 61.6%

## CCS(=O)(=O)c1cc2cc(C[C@@](O)(CC(C)(C)c3ccc(F)cc3C(N)=O)C(F)(F)F)[nH]c2cn1 [BI 3047]
Colon cancer organoid [1]
  viability at 1 µM: 71%
Colon cancer organoid [2]
  viability at 1 µM: 139%
Colon cancer organoid [3]
  viability at 1 µM: 44.9%
Colon cancer organoid [4]
  viability at 1 µM: 46.6%
Colon cancer organoid [5]
  viability at 1 µM: 137%

## CCN(Cc1ccc(Cl)cc1)c1ncc(C(=O)NCCCN2CCCC2=O)c(NC2CCCC2)n1
Colon cancer organoid [1]
  viability at 10 µM: 61.6%
Colon cancer organoid [2]
  viability at 10 µM: 105%
Colon cancer organoid [3]
  viability at 10 µM: 46.6%
Colon cancer organoid [4]
  viability at 10 µM: 74.3%
Colon cancer organoid [5]
  viability at 10 µM: 108%

## Nc1ncnc2c1ccn2[C@@H]1O[C@H]([C@H](O)c2ccccc2)[C@@H](O)[C@H]1O
Colon cancer organoid [1]
  viability at 10 µM: 68.9%
Colon cancer organoid [2]
  viability at 10 µM: 97.6%
Colon cancer organoid [3]
  viability at 10 µM: 14.9%
Colon cancer organoid [4]
  viability at 10 µM: 45%
Colon cancer organoid [5]
  viability at 10 µM: 14.9%

## CCCOc1ccc([C@@H]2[C@@H](C(=O)O)[C@H](c3ccc4c(c3)OCO4)CN2CC(=O)Nc2c(CC)cccc2CC)cc1 [A-1806262]
Colon cancer organoid [1]
  viability at 1 µM: 54.5%
Colon cancer organoid [2]
  viability at 1 µM: 85%
Colon cancer organoid [3]
  viability at 1 µM: 47.8%
Colon cancer organoid [4]
  viability at 1 µM: 38.9%
Colon cancer organoid [5]
  viability at 1 µM: 79.9%

## O=C(NCc1ncc(C(F)(F)F)cc1Cl)c1ccc2c(c1)C1(CCS(=O)(=O)CC1)[C@H](C1CC1)N2S(=O)(=O)c1ccc(F)cc1 [BAY-784]
Colon cancer organoid [1]
  viability at 1 µM: 127%
Colon cancer organoid [2]
  viability at 1 µM: 157%
Colon cancer organoid [3]
  viability at 1 µM: 55.8%
Colon cancer organoid [4]
  viability at 1 µM: 74.1%
Colon cancer organoid [5]
  viability at 1 µM: 129%

## CC(C)(O)c1cncc(-c2nc3ccc(F)cc3n2C2CC2)c1 [MSD-CYP11B2]
Colon cancer organoid [1]
  viability at 10 µM: 94.9%
Colon cancer organoid [2]
  viability at 10 µM: 144%
Colon cancer organoid [3]
  viability at 10 µM: 39%
Colon cancer organoid [4]
  viability at 10 µM: 79.5%
Colon cancer organoid [5]
  viability at 10 µM: 107%

## Cc1cc2c(-c3ccco3)cnc(N[C@@H]3CCN(C)C[C@H]3C(=O)NC3CCCCC3)c2[nH]c1=O [GSK789]
Colon cancer organoid [1]
  viability at 10 µM: 38.8%
Colon cancer organoid [2]
  viability at 10 µM: 72.5%
Colon cancer organoid [3]
  viability at 10 µM: 26.6%
Colon cancer organoid [4]
  viability at 10 µM: 29.8%
Colon cancer organoid [5]
  viability at 10 µM: 84.8%

## Cc1cnc(-c2cc(Cl)ccc2F)cc1-n1c(=O)n(CC(N)=O)c2cnccc21 [TP-008]
Colon cancer organoid [1]
  viability at 10 µM: 94%
Colon cancer organoid [2]
  viability at 10 µM: 147%
Colon cancer organoid [3]
  viability at 10 µM: 43.1%
Colon cancer organoid [4]
  viability at 10 µM: 43.8%
Colon cancer organoid [5]
  viability at 10 µM: 114%

## CS(=O)(=O)c1cc(C2(NC(=O)c3cncc4c3cnn4-c3ccc(F)cc3)CC2)ccn1 [BI 639667]
Colon cancer organoid [1]
  viability at 1 µM: 94.7%
Colon cancer organoid [2]
  viability at 1 µM: 135%
Colon cancer organoid [3]
  viability at 1 µM: 39%
Colon cancer organoid [4]
  viability at 1 µM: 107%
Colon cancer organoid [5]
  viability at 1 µM: 126%

Reference: ChEMBL document CHEMBL5608113, “Targeting of CAF-induced therapy resistance in CRC organoid-stroma co-cultures” (2024)
